# Measurements: PMC5279725 (PLoS ONE, 2017)
# How the values were obtained:
# MPO in CF sputum sol [1] = test: MPO peroxidase activity (TMB) in CF sputum sol ± neutrophils (PMN), heat-killed P. aeruginosa or heat-aggregated IgG; type: biochemical; conditions: CF sol only, + killed P. aeruginosa, + Agg IgG
# Experimental: To these samples were added 1×10^6 neutrophils for 1 hour at 37°C. These samples were then analyzed for MPO peroxidase activity by TMB assay, described below.
# (§1) To measure MPO peroxidase activity using TMB, 20 μl of assay supernatant, CF sol, or neutrophil lysate was serially diluted and then combined with 100 μl of TMB in a non-treated 96-well plate followed by 100 μl of 2.5 N H2SO4 (stop buffer) and absorbance was read at 450 nm. For MPO functional assays using ABTS, 150 μl of ABTS solution was added to each sample and incubated for 5 minutes before adding 100 μl of 1% SDS to stop the reaction. Absorbance was read at 405 nm. O-dianisidine working solution was prepared by making a 0.166 mg/ml solution in 50 mM phosphate-citrate buffer, pH 5.0 with a final of 0.006% H2O2 added immediately before use. For MPO measurements, 100 μl of the prepared O-dianisidine solution was added to each sample and incubated for 2 minutes before adding 100 μl of 2.5 N H2SO4 to stop the reaction. Absorbance was read at 405 nm.
# C1q = conditions: cited from earlier work
# MPO in CF sputum sols = test: MPO peroxidase activity (TMB) in 14 clinical CF sputum sols; type: biochemical
# Experimental: Expectorated sputum samples were collected in sterile containers and immediately placed on ice. The soluble fraction (sol) was extracted as a supernatant of free flowing liquid after cold (4°C) centrifugation at 14,000 g for 60 minutes, similar to previously described methods. Due to the normal differences in CF sputum viscosity, sol fractions were not normalized for protein content consistent with previously described methods.
# as §1
# purified MPO [2] = test: Dose-response inhibition of pure MPO at various MPO concentrations; type: biochemical
# Experimental: as §1
# [3] = cited from earlier work
# Description: Evidence from previous investigators implicate MPO as a major contributor to CF lung damage, which is consistent with MPO being the most prevalent peroxidase in neutrophils and the clear role of neutrophils mediating lung destruction in CF.
# MPO in neutrophil lysate = test: MPO peroxidase activity (TMB) in neutrophil lysate; type: biochemical; conditions: 0.9 mM PIC1 vs no PIC1, n = 4, P < 0.001
# Experimental: Neutrophils from the blood of healthy volunteers were purified from heparinized blood by Hypaque-Ficoll step gradient centrifugation, dextran sedimentation, and hypotonic lysis, as previously described. Neutrophils were adjusted to 1×10^7 cells/ml for the functional studies. Neutrophils were sedimented, lysed in 1% Triton X-100, and 1×10^6 cell/ml equivalent aliquots were used for neutrophil lysate assays.
# (§2) MPO peroxidase activity utilizing pure MPO was assayed by combing the MPO solution, diluted to 160 nM with PBS buffer, with an inhibitor, at denoted concentrations, in a 1:1 ratio (v/v) for 1 min. prior to adding TMB.
# as §1, with “For MPO measurements, 100 μl of the prepared O-dianisidine solution was added to each sample and incubated for 2 minutes before adding 100 μl of 2.5 N H2SO4 to stop the reaction.” left out
# purified MPO [4] = test: Purified MPO oxidation of TMB; type: biochemical
# Experimental: as §2, §1
# [5] = Reversal/inhibition of TMB oxidation, PIC1 added before TMB or after TMB incubated with MPO; type: biochemical; conditions: PIC1 added after MPO and TMB had incubated
# Experimental: We then tested whether PIC1 could reverse the oxidized state of TMB after incubation with MPO.
# [6] = Anti-oxidant assay: TMB oxidized by solid-phase MPO, transferred to uncoated well; type: biochemical; conditions: absorbance 450 nm, n = 4, P = 0.02
# Experimental: Pure MPO was coated onto an Immunlon-2 96 well plate at 24 μg/ml in carbonate buffer overnight at 4°C. The plate was washed to remove unbound protein with PBS and 0.05% Tween, and then 100 μl of TMB was added. […] After 1 minute, 100 μl of 2.5 N H2SO4 was added to stop the reaction and absorbance was read at 450 nm.
# MPO heme ring [7] = test: Spectral analysis of MPO heme ring with H2O2; conditions: 2.5 mM PIC1, 200 μM H2O2
# Experimental: (§3) As each component is added to the MPO it is allowed to incubate for 5 minutes. […] Absorbance values were recorded from 300–550 nm.
# purified MPO [8] = test: Purified MPO oxidation of ABTS; type: biochemical; conditions: PIC1 0.5–0.9 mM
# Experimental: as §2, §1
# MPO heme ring [9] = test: Spectral analysis of MPO heme ring with bleach (NaOCl); conditions: 2 μM MPO, 2.5 mM PIC1, bleach 1:1000, n = 2
# Experimental: as §3
# MPO in CF sputum sol [10] = test: PIC1 dose-response on MPO activity (TMB) in CF sputum sol #2m; type: biochemical
# Experimental: as §1
# complement activation = conditions: cited from earlier work
# Description: DMSO as a diluent decreas ...
# MPO = test: Ferrozine assay of Fe release from MPO in the presence of bleach; conditions: 2 μM MPO, 2.5 mM PIC1, bleach 1:1000; 562 nm
# Experimental: Iron release from MPO was measured utilizing a ferrozine assay. After the absorbance spectra was recorded, 100 μl of ascorbic acid (100 mM) was added to each sample and allowed to incubate for 5 minutes. Then 50 μl of ammonium acetate (16%) and 50 μl of ferrozine (16 mM) were added to the samples and mixed. After incubating for 5 minutes, absorbance was measured at 562 nm. A standard curve was prepared using ammonium Fe(III) sulfate and a linear regression was used to calculate the free iron concentration.
# MPO in CF sol = test: pH effect on MPO peroxidase activity (TMB) in CF sol; type: biochemical; conditions: PIC1 7.5 mM (pH 4.7) vs sol acidified to pH 4.0
# Experimental: Assays of pH effect on MPO peroxidase activity in CF sols was performed by adjusting one representative CF sol, initially at a pH of 7.0, to pH values of 6.0, 5.0, and 4.0 using H2SO4. […] TMB was added after 5 minutes.
# as §1
# purified MPO [11] = test: Purified MPO oxidation of O-dianisidine; type: biochemical; conditions: PIC1 0.5–0.9 mM
# Experimental: as §2, §1
substance,measurement,setting,value
IALILEPICCQERAA-dPEG24 [PIC1],MPO oxidation of TMB,MPO in CF sputum sol [1],dramatically inhibited MPO oxidation of TMB in all conditions
same,C1 enzymatic activation,C1q,inhibits enzymatic activation
same,C1q binding affinity,C1q; similar to C1r-C1s-C1s-C1r tetramer,nanomolar affinity
same,median MPO activity after PIC1,"MPO in CF sputum sols; 7.5 mM PIC1, 14 CF sputum samples, as number of neutrophils lysed to yield equivalent TMB oxidation, baseline median 94.0, P = 0.02",27.9
same,decrease in median MPO activity,"MPO in CF sputum sols; 7.5 mM PIC1, 14 CF sputum samples, vs baseline, P = 0.02",3.4 fold
same,change in MPO activity,"MPO in CF sputum sols; 7.5 mM PIC1, each of 14 samples",decrease in MPO activity
same,MPO-postPIC1 median,"MPO in CF sputum sols; PIC1 7.5 mM, 14 samples, MPO-pre median 93.975",27.935 x 10E6
same,MPO-postPIC1,"MPO in CF sputum sols; PIC1 7.5 mM, sample 1e, MPO-pre 117.41",30.1 x 10E6
same,MPO-postPIC1,"MPO in CF sputum sols; PIC1 7.5 mM, sample 2j, MPO-pre 17.29",0 x 10E6
same,MPO-postPIC1,"MPO in CF sputum sols; PIC1 7.5 mM, sample 2m, MPO-pre 158.85",43.21 x 10E6
same,MPO-postPIC1,"MPO in CF sputum sols; PIC1 7.5 mM, sample 3i, MPO-pre 1117.64",493.15 x 10E6
same,MPO-postPIC1,"MPO in CF sputum sols; PIC1 7.5 mM, sample 4a, MPO-pre 7.9",0 x 10E6
same,MPO-postPIC1,"MPO in CF sputum sols; PIC1 7.5 mM, sample 5e, MPO-pre 305.93",173.21 x 10E6
same,MPO-postPIC1,"MPO in CF sputum sols; PIC1 7.5 mM, sample 10g, MPO-pre 71.54",19.09 x 10E6
same,MPO-postPIC1,"MPO in CF sputum sols; PIC1 7.5 mM, sample 15e, MPO-pre 55.77",12.92 x 10E6
same,MPO-postPIC1,"MPO in CF sputum sols; PIC1 7.5 mM, sample 17c, MPO-pre 77.44",25.77 x 10E6
same,MPO-postPIC1,"MPO in CF sputum sols; PIC1 7.5 mM, sample 28a, MPO-pre 325.09",297.05 x 10E6
same,MPO-postPIC1,"MPO in CF sputum sols; PIC1 7.5 mM, sample 29e, MPO-pre 110.51",43.24 x 10E6
same,MPO-postPIC1,"MPO in CF sputum sols; PIC1 7.5 mM, sample 34j, MPO-pre 68.92",16.55 x 10E6
same,MPO-postPIC1,"MPO in CF sputum sols; PIC1 7.5 mM, sample 1d, MPO-pre 229",214.65 x 10E6
same,MPO-postPIC1,"MPO in CF sputum sols; PIC1 7.5 mM, sample 9d, MPO-pre 34.41",0 x 10E6
same,inhibition of MPO peroxidase activity,"purified MPO [2]; 0.5 mM PIC1, 20 μM MPO, P < 0.001",5.4 fold
same,inhibition of MPO peroxidase activity,purified MPO [2]; MPO concentrations up to 80 μM,Concentration dependent PIC1 inhibition of MPO peroxidase activity
same,aqueous solubility,[3],excellent aqueous solubility
same,tolerability in vivo,[3],well tolerated in vivo
same,inhibition of MPO activity,MPO in neutrophil lysate,12.5 fold
same,inhibition of purified MPO oxidation of TMB,"purified MPO [4]; 0.9 mM PIC1, MPO 80 nM, n = 3, P < 0.001",28 fold
same,improvement in MPO inhibition compared with ABAH,"purified MPO [4]; 0.9 mM, TMB, P = 0.002",7 fold
same,reversal of TMB oxidation,[5],the color change was reversed and the absorbance value was minimal
same,reduction in oxidized TMB,[6],20 fold
same,heme ring protection,MPO heme ring [7],able to inhibit oxidative damage to the heme ring and alteration of the iron charge state
same,inhibition of purified MPO oxidation of ABTS,purified MPO [8],dramatically inhibited
same,protection of MPO from bleach,MPO heme ring [9],largely protected from the oxidative effects of bleach
same,reduction in MPO activity,"MPO in CF sputum sol [10]; 7.5 mM PIC1 vs no PIC1, n = 3, P = 0.001",11.5 fold
same,inhibition of MPO activity,MPO in CF sputum sol [10]; PIC1 titration,dose-dependent inhibition of MPO activity
same,P. aeruginosa-initiated complement activation,complement activation; CF sputum sols,can inhibit P. aeruginosa-initiated complement activation
same,C5a generation,complement activation; CF sputum soluble fraction,can inhibit P. aeruginosa-mediated generation of the pro-inflammatory anaphylatoxin C5a
same,bleach-mediated iron release from MPO,MPO,able to prevent bleach-mediated release of iron from MPO
same,role of acidification in MPO inhibition,MPO in CF sol,not mediated by acidification of the sol
same,inhibition of purified MPO oxidation of O-dianisidine,purified MPO [11],dramatically inhibited
